Test results: PubChem BioAssay AID1963846 (Molecular Pharmacology Branch, DTP, NCI, 2024)
pIC50: −log10 of the molar value.

System: 454973-116-R2-J3-PDC complex spheroid viability
Assay: Anticancer human tumor 454973-116-R2-J3-PDC patient-derived pancreatic carcinoma cell line growth inhibition [POLQ]
Details: for pIC50: curve of first compound; for viability, T/C: stronger effect = lower value
Summary of the method: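 PDC + HUVEC + MSC complex spheroids; POLQ inhibitors ± partner drugs; top conc. at/near clinical Cmax, else 10 microM (SN-38 1 microM), half-log dilutions; 37 degrees C, 5% CO2.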

[1] = second compound 0.0316 µM, first compound 0.0316 µM
[2] = second compound 0.0316 µM, first compound 0.1 µM
[3] = second compound 0.0316 µM, first compound 0.316 µM
[4] = second compound 0.0316 µM, first compound 1 µM
[5] = second compound 0.0316 µM, first compound 3.16 µM
[6] = second compound 0.0316 µM, first compound 10 µM
[7] = second compound 0.1 µM, first compound 0.0316 µM
[8] = second compound 0.1 µM, first compound 0.1 µM
[9] = second compound 0.1 µM, first compound 0.316 µM
[10] = second compound 0.1 µM, first compound 1 µM
[11] = second compound 0.1 µM, first compound 3.16 µM
[12] = second compound 0.1 µM, first compound 10 µM
[13] = second compound 0.316 µM, first compound 0.0316 µM
[14] = second compound 0.316 µM, first compound 0.1 µM
[15] = second compound 0.316 µM, first compound 0.316 µM
[16] = second compound 0.316 µM, first compound 1 µM
[17] = second compound 0.316 µM, first compound 3.16 µM
[18] = second compound 0.316 µM, first compound 10 µM
[19] = second compound 1 µM, first compound 0.0316 µM
[20] = second compound 1 µM, first compound 0.1 µM
[21] = second compound 1 µM, first compound 0.316 µM
[22] = second compound 1 µM, first compound 1 µM
[23] = second compound 1 µM, first compound 3.16 µM
[24] = second compound 1 µM, first compound 10 µM
[25] = second compound 3.16 µM, first compound 0.0316 µM
[26] = second compound 3.16 µM, first compound 0.1 µM
[27] = second compound 3.16 µM, first compound 0.316 µM
[28] = second compound 3.16 µM, first compound 1 µM
[29] = second compound 3.16 µM, first compound 3.16 µM
[30] = second compound 3.16 µM, first compound 10 µM
[31] = second compound 10 µM, first compound 0.0316 µM
[32] = second compound 10 µM, first compound 0.1 µM
[33] = second compound 10 µM, first compound 0.316 µM
[34] = second compound 10 µM, first compound 1 µM
[35] = second compound 10 µM, first compound 3.16 µM
[36] = second compound 10 µM, first compound 10 µM
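Also: spheroids exposed to drugs for seven days before measurement.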
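For viability, T/C in this document: percent viability relative to DMSO vehicle control wells taken as 100%.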

With `Nc1ccn(C2OC(CO)C(O)C2(F)F)c(=O)n1` (stereo not drawn) + Cc1cccc(N(C)C(=O)C2C(O)CCN2c2nc(C)cc(C(F)(F)F)c2C#N)c1 the pIC50 (second compound 0.0316 µM) was over 7.50, the pIC50 (second compound 0.1 µM) was over 7.50 and the pIC50 (second compound 0.316 µM) was over 7.50. For the same compound, the pIC50 (second compound 1 µM) was over 7.50, the pIC50 (second compound 3.16 µM) was over 7.50 and the pIC50 (second compound 10 µM) was over 7.50. The viability, T/C [1] was 13.4%, the viability, T/C [2] was 13.4% and the viability, T/C [3] was 14.2%. It also gave a viability, T/C [4] of 12.5%, a viability, T/C [5] of 12.3% and a viability, T/C [6] of 12.7%. The viability, T/C [7] was 16.2%, the viability, T/C [8] was 11.9% and the viability, T/C [9] was 13.7%. The viability, T/C [10] was 15.5%, the viability, T/C [11] was 13.5% and the viability, T/C [12] was 13.9%. It also gave a viability, T/C [13] of 15.1%, a viability, T/C [14] of 13.8% and a viability, T/C [15] of 14.2%. The viability, T/C [16] was 14.2%, the viability, T/C [17] was 13.6% and the viability, T/C [18] was 12.8%. For the same compound, the viability, T/C [19] was 14.1%, the viability, T/C [20] was 11.7% and the viability, T/C [21] was 13.9%. The viability, T/C [22] was 14.6%, the viability, T/C [23] was 12.5% and the viability, T/C [24] was 11.8%. The viability, T/C [25] was 16.9%, the viability, T/C [26] was 13.5% and the viability, T/C [27] was 14.8%. For the same compound, the viability, T/C [28] was 13.8%, the viability, T/C [29] was 12.5% and the viability, T/C [30] was 14%. It also gave a viability, T/C [31] of 13.6%, a viability, T/C [32] of 14.2% and a viability, T/C [33] of 17.1%. It also gave a viability, T/C [34] of 14.2%, a viability, T/C [35] of 13.8% and a viability, T/C [36] of 11.9%.

With `COc1cc2cc(C(=O)CCC(=O)O)sc2cc1OC` + Nc1ccc(C#CCN(C(=O)Cc2ncc(C(F)(F)F)cc2C(F)(F)F)c2ccc(F)cc2)nn1 the pIC50 (second compound 0.0316 µM) was under 5.00, the pIC50 (second compound 0.1 µM) was under 5.00 and the pIC50 (second compound 0.316 µM) was under 5.00. The pIC50 (second compound 1 µM) was under 5.00, the pIC50 (second compound 3.16 µM) was under 5.00 and the pIC50 (second compound 10 µM) was under 5.00. It also gave a viability, T/C [1] of 96.7%, a viability, T/C [2] of 101% and a viability, T/C [3] of 112%. The viability, T/C [4] was 101%, the viability, T/C [5] was 107% and the viability, T/C [6] was 98.9%. It also gave a viability, T/C [7] of 98.2%, a viability, T/C [8] of 103% and a viability, T/C [9] of 100%. For the same compound, the viability, T/C [10] was 105%, the viability, T/C [11] was 107% and the viability, T/C [12] was 104%. For the same compound, the viability, T/C [13] was 93.8%, the viability, T/C [14] was 101% and the viability, T/C [15] was 107%. For the same compound, the viability, T/C [16] was 104%, the viability, T/C [17] was 111% and the viability, T/C [18] was 94.3%. For the same compound, the viability, T/C [19] was 110%, the viability, T/C [20] was 103% and the viability, T/C [21] was 106%. For the same compound, the viability, T/C [22] was 122%, the viability, T/C [23] was 108% and the viability, T/C [24] was 99.2%. For the same compound, the viability, T/C [25] was 118%, the viability, T/C [26] was 110% and the viability, T/C [27] was 113%. For the same compound, the viability, T/C [28] was 109%, the viability, T/C [29] was 116% and the viability, T/C [30] was 107%. It also gave a viability, T/C [31] of 115%, a viability, T/C [32] of 114% and a viability, T/C [33] of 118%. For the same compound, the viability, T/C [34] was 117%, the viability, T/C [35] was 119% and the viability, T/C [36] was 105%.

For `C=CCn1c(=O)c2cnc(Nc3ccc(N4CCN(C)CC4)cc3)nc2n1-c1cccc(C(C)(C)O)n1` + Nc1ccc(C#CCN(C(=O)Cc2ncc(C(F)(F)F)cc2C(F)(F)F)c2ccc(F)cc2)nn1, the pIC50 (second compound 0.0316 µM) was 6.34, the pIC50 (second compound 0.1 µM) was 6.35 and the pIC50 (second compound 0.316 µM) was 6.29. It also gave a pIC50 (second compound 1 µM) of 6.39, a pIC50 (second compound 3.16 µM) of 6.32 and a pIC50 (second compound 10 µM) of 6.37. For the same compound, the viability, T/C (second compound 0.0316 µM, first compound 0.00316 µM) was 108%, the viability, T/C (second compound 0.0316 µM, first compound 0.01 µM) was 100% and the viability, T/C [1] was 104%. It also gave a viability, T/C [2] of 99%, a viability, T/C [3] of 68.7% and a viability, T/C [4] of 9.62%. For the same compound, the viability, T/C (second compound 0.1 µM, first compound 0.00316 µM) was 106%, the viability, T/C (second compound 0.1 µM, first compound 0.01 µM) was 102% and the viability, T/C [7] was 102%. It also gave a viability, T/C [8] of 104%, a viability, T/C [9] of 68.5% and a viability, T/C [10] of 8.41%. It also gave a viability, T/C (second compound 0.316 µM, first compound 0.00316 µM) of 99.3%, a viability, T/C (second compound 0.316 µM, first compound 0.01 µM) of 109% and a viability, T/C [13] of 106%. The viability, T/C [14] was 107%, the viability, T/C [15] was 79.3% and the viability, T/C [16] was 10.2%. The viability, T/C (second compound 1 µM, first compound 0.00316 µM) was 105%, the viability, T/C (second compound 1 µM, first compound 0.01 µM) was 101% and the viability, T/C [19] was 114%. The viability, T/C [20] was 114%, the viability, T/C [21] was 62.3% and the viability, T/C [22] was 6.99%. It also gave a viability, T/C (second compound 3.16 µM, first compound 0.00316 µM) of 105%, a viability, T/C (second compound 3.16 µM, first compound 0.01 µM) of 114% and a viability, T/C [25] of 115%. The viability, T/C [26] was 114%, the viability, T/C [27] was 72.7% and the viability, T/C [28] was 8.66%. For the same compound, the viability, T/C (second compound 10 µM, first compound 0.00316 µM) was 116%, the viability, T/C (second compound 10 µM, first compound 0.01 µM) was 116% and the viability, T/C [31] was 129%. The viability, T/C [32] was 112%, the viability, T/C [33] was 65% and the viability, T/C [34] was 6.21%.

In the case of `CCc1cc2c(N3CCc4c(cc(Cn5ccnc5)cc4-c4cn(C)nc4C(F)(F)F)C3=O)cc(C)nc2c(OC)n1` + Cc1cccc(N(C)C(=O)C2C(O)CCN2c2nc(C)cc(C(F)(F)F)c2C#N)c1, the pIC50 (second compound 0.0316 µM) was under 5.00, the pIC50 (second compound 0.1 µM) was under 5.00 and the pIC50 (second compound 0.316 µM) was under 5.00. For the same compound, the pIC50 (second compound 1 µM) was under 5.00, the pIC50 (second compound 3.16 µM) was under 5.00 and the pIC50 (second compound 10 µM) was under 5.00. For the same compound, the viability, T/C [1] was 94.7%, the viability, T/C [2] was 84.6% and the viability, T/C [3] was 87.3%. For the same compound, the viability, T/C [4] was 75.5%, the viability, T/C [5] was 76.5% and the viability, T/C [6] was 56.9%. It also gave a viability, T/C [7] of 92.7%, a viability, T/C [8] of 99.2% and a viability, T/C [9] of 80.7%. The viability, T/C [10] was 80.1%, the viability, T/C [11] was 74.6% and the viability, T/C [12] was 60.8%. For the same compound, the viability, T/C [13] was 93.6%, the viability, T/C [14] was 84.5% and the viability, T/C [15] was 87.7%. The viability, T/C [16] was 76.9%, the viability, T/C [17] was 76.3% and the viability, T/C [18] was 61.6%. For the same compound, the viability, T/C [19] was 100%, the viability, T/C [20] was 94% and the viability, T/C [21] was 78.4%. It also gave a viability, T/C [22] of 73.6%, a viability, T/C [23] of 70.4% and a viability, T/C [24] of 58.6%. For the same compound, the viability, T/C [25] was 104%, the viability, T/C [26] was 89.3% and the viability, T/C [27] was 84.1%. For the same compound, the viability, T/C [28] was 74.7%, the viability, T/C [29] was 74.4% and the viability, T/C [30] was 63.8%. It also gave a viability, T/C [31] of 88.5%, a viability, T/C [32] of 90.2% and a viability, T/C [33] of 74.9%. It also gave a viability, T/C [34] of 71.5%, a viability, T/C [35] of 64.9% and a viability, T/C [36] of 53.2%.
